This note sets out measurements from patent publication US20260207708A1, “THERAPEUTIC USES OF ADIPOSE-SECRETED SIGNALING PROTEIN (ADISSP)” (UNIVERSITY OF MASSACHUSETTS, priority 2023, published 2026).

Where two headings read alike, the source gives them in different places.

Data set [1] relates to Glut4. The data set can be described thus: Glut4 trafficking to the plasma membrane in Myc-Glut4-GFP transfected adipocytes. To be noted: adipocytes serum-starved overnight, treated 30 min; for Glut4 localization to the plasma membrane: Myc staining without permeabilization. Format: cell-based. The procedure: To evaluate effects of ADISSP on Glut4 trafficking to the plasma membrane, adipocytes were transfected with a Myc-Glut4-GFP plasmid, in which Myc and GFP were fused to the extracellular and intracellular regions of Glut4, respectively. The Adipocytes were serum-starved overnight, and then treated with purified ADISSP protein or insulin for 30 min. The adipocytes were fixed without permeabilization, and stained with Myc antibody and DAPI. […] 95% of GFP-positive cells were also Myc-positive after either ADISSP or insulin treatment, while very few GFP-positive cells were Myc-positive in control samples.

The test system of data set [2] is Akt. The experiment in a line: Akt activation in serum-starved brown adipocytes. The settings on record: for blocking of Akt activation by ADISSP: adipocytes pre-treated with inhibitor 2 hr: S961 0.5 μM, Melittin 1 μM, Gallein 5 μM, wortmannin 1 μM, LDC1267 1 μM, then ADISSP 300 nM 30 min. Format: cell-based. How it is done:
(§1) In some cases adipocytes were pre-treated with inhibitors for 2 hr: S961 (0.5 μM), Melittin (1 μM), Gallein (5 μM), wortmannin (1 μM), and LDC1267 (1 μM).

Data set [3] has as its system insulin receptor substrate 1 (IRS1). The data set can be described thus: IRS1 activation in serum-starved brown adipocytes. In kind it is cell-based. To be noted: ADISSP 300 nM, 30 min. The procedure:
as §1

Data set [4] concerns tyrosine phosphorylation. The experiment in a line: Tyrosine phosphorylation in serum-starved brown adipocytes. In kind it is cell-based. To be noted: ADISSP 300 nM, 30 min. How it is done: as §1
Data set [5] has as its system euglycemic mice. In kind it is in vivo. The settings on record: 70 nmole/kg ip, 3 hr after injection. The procedure:
(§2) To explore the mechanism of ADISSP action in vivo, 3-month-old male mice (n=4/group) with euglycemia were intraperitoneally (ip) injected with purified ADISSP protein (70 nmole/kg) at 0 hr. Glucose and insulin levels and Akt activation were measured 3 hr after injection.

Data set [6] relates to Akt. The experiment in a line: Akt activation in adipose tissue in vivo after single ip dose. The settings on record: 70 nmole/kg ip, 3 hr after injection. More on the design: species or system mice. The procedure: as §2
Data set [7] concerns ob/ob mice. The experiment in a line: ob/ob mice, single dose then once every 48 hours. In kind it is in vivo. The procedure:
The effects of injection of purified ADISSP protein were evaluated on hyperglycemia, hyperinsulinemia, and liver steatosis in ob/ob mice (6 male and 9 female mice in control group and 5 male and 10 female mice in treatment group), which were used as a type 2 diabetic mouse model. The mice were injected intraperitoneally with vehicle or a single dose of purified ADISSP protein (50 nmole/kg). Glucose was monitored for 46 hours. Note, no food was provided in the first 8 hours. […] The glucose-lowering effect of ADISSP protein was not due to any difference of food intake, as there was no food provided in the first 8 hours. 46 hours post the first injection, ob/ob mice were injected with ADISSP (50 nmole/kg) once every 48 hour at 8 am (arrow). Mice were fed ad libitum.

Data set [8] has as its system ob/ob mice. In kind it is in vivo. How it is done:
To evaluate longer-term effects of treatment with ADISSP, 12-week ob/ob mice (6 male and 8 female mice in control group and 8 male and 8 female mice in treatment group) were used. Glucose levels were measured at 7 am daily. Vehicle or ADISSP protein (62.6 nmole/kg per day) was ip injected once a day at 8 am for 30 days. […] In addition, after one-month treatment of ob/ob mice with ADISSP protein, bone density was examined by X-Ray. […] Instead, a slight increase was observed, as shown in the region in the box in FIG. 7G. Loss of bone density is associated with FGF21 and diabetes drug TZDs.

The test system of data set [9] is DIO mice. The experiment in a line: Two-week treatment of high fat-induced obese (DIO) mice. To be noted: 65 nmole/kg ip once a day, 14 injections. In kind it is in vivo. The procedure:
In the experiment shown in FIGS. 7A-G, all daily glucose levels were measured 24-hr post ADISSP injection. A much stronger glucose reduction would have been observed if measured at earlier time points, e.g., at 6-hr or 12-hr following protein injection. […] Male mice (n=19 mice/group) were fed a high fat diet for 20 weeks to render them obese and hyperglycemia. Mice were then ip injected with ADISSP protein (65 nmole/kg) once a day at 8 am for a total of 14 injections. Glucose levels at ad libitum state were measured at 7:30 am, […]. Insulin levels and livers were examined.

The subject of data set [10] is DIO mice. Format: in vivo. The settings on record: 71 nmole/kg per day ip, one month. How it is done:
We next performed a one-month treatment of hyperglycemic DIO mice (n=19-20 DIO mice/group) with purified ADISSP protein. Glucose levels were measured every day at 7:30 am followed by daily intraperitoneal injection of ADISSP (71 nmole/kg per day). […] Hypertriglyceridemia (FIG. 9J) and high level of Aspartate aminotransferase (AST) (indicative of liver damage caused by fatty liver) (FIG. 9K) were normalized as well.

For data set [11], the system named is STZ-induced type 1 diabetic mice. The experiment in a line: High-dose streptozotocin (STZ)-induced type 1 diabetic mice. The settings on record: STZ 200 mg/kg single dose, ADISSP 50 nmole/kg ip at 0 hr and 24 h. In kind it is in vivo, C57BL6 mice. How it is done: (§3) The effects of ADISSP protein administration on blood glucose and polyuria were evaluated in streptozotocin (STZ)-induced type 1 diabetic mice. A single dose (200 mg/kg) of STZ was ip injected into C57BL6 mice. Eight days post injection, as expected, high-dose STZ caused extremely severe type 1 diabetes with ad libitum glucose level (>600 mg/dL) exceeding the upper limit of the glucose meter. The mice were ip injected with ADISSP protein (50 nmole/kg) or vehicle at 0 hr and 24 h. After each injection, mice were fasted for 6 hours before glucose measurement so the glucose level in the vehicle group would fall below 600 mg/dL. […] We were not able to continue the experiment because the mice were not healthy due to the high dose of STZ. To account for this, a low dose (50 mg/kg) of STZ was injected daily from Day 1 to Day 5 to produce healthy, type 1 diabetes mice. From Day 13, glucose was measured at 7:30 am followed by ip injection of ADISSP protein (70 nmole/kg) or vehicle once a day at 8 am for two weeks. At Day 13, glucose was measured after 2 hour fasting, all other time points were measured at ad libitum state.

For data set [12] the test system is unchanged. The experiment in a line: Low-dose streptozotocin (STZ)-induced type 1 diabetic mice. Format: in vivo. To be noted: STZ 50 mg/kg daily Day 1 to Day 5. How it is done: as §3
In data set [13] the test system is GAN diet NASH mice. The data set can be described thus: Gubra Amylin NASH (GAN) diet mice: NASH and cardiac hypertrophy. In kind it is in vivo, C57BL6J mice. The text has this: To examine the potential effects of Adissp protein on NASH, we fed wild-type male C57BL6J mice with the Gubra Amylin NASH (GAN) diet (Research Diets, D09100310) for 32 weeks to induce a NASH phenotype resembling human NASH. We then treated these mice with Adissp (113 nmole/kg per day) or vehicle. […] At Day 16 of the treatment, a sub-group of mice were sacrificed and NASH phenotype was examined. […] Thus, treatment with Adissp protein rapidly resolved the NASH phenotype.
The remaining mice were continuously treated with 63 nmole/kg per day Adissp protein or vehicle for 31 days.

Where [14] appears, read: 62.6 nmole/kg per day ip, 30 days.
Where [15] appears, read: 113 nmole/kg per day, Day 16 of treatment.

Regarding insulin [reference compound], in data set [1], the “GFP-positive cells also Myc-positive” value came out at 95% and the “Glut4 localization to the plasma membrane” value is given as “induced Glut4 localization to the plasma membrane”.
In the case of `O=C1OC2(c3ccccc31)c1ccc(O)c(O)c1Oc1c2ccc(O)c1O` [Gallein], in [2], the “blocking of Akt activation by ADISSP” value is reported as “not blocked”.
Regarding `CCOc1cn(-c2ccc(F)cc2C)nc1C(=O)Nc1ccc(Oc2ccnc3cc(OC)c(OC)cc23)c(F)c1` [LDC1267], the “blocking of Akt activation by ADISSP” value in data set [2] is “blocks”.
Turning to `CC[C@H](C)[C@H](NC(=O)CN)C(=O)NCC(=O)N[C@@H](C)C(=O)N[C@H](C(=O)N[C@@H](CC(C)C)C(=O)N[C@@H](CCCCN)C(=O)N[C@H](C(=O)N[C@@H](CC(C)C)C(=O)N[C@H](C(=O)N[C@H](C(=O)NCC(=O)N[C@@H](CC(C)C)C(=O)N1CCC[C@H]1C(=O)N[C@@H](C)C(=O)N[C@@H](CC(C)C)C(=O)N[C@H](C(=O)N[C@@H](CO)C(=O)N[C@@H](Cc1c[nH]c2ccccc12)C(=O)N[C@H](C(=O)N[C@@H](CCCCN)C(=O)N[C@@H](CCCNC(=N)N)C(=O)N[C@@H](CCCCN)C(=O)N[C@@H](CCCNC(=N)N)C(=O)N[C@@H](CCC(N)=O)C(=O)N[C@@H](CCC(N)=O)C(N)=O)[C@@H](C)CC)[C@@H](C)CC)[C@@H](C)O)[C@@H](C)O)C(C)C)C(C)C` [Melittin], in [2], the “blocking of Akt activation by ADISSP” value is listed as “not blocked”.
In the case of “ADISSP: recombinant adipose-secreted signaling protein with C-terminal His-tag, purified from medium of transfected Expi293F cells”, in [2] (serum-starved brown adipocytes, ADISSP 300 nM, 30 min), the Akt activation entry is “activates Akt independently of insulin receptor”. Moreover, the “activation of insulin receptor substrate 1 (IRS1)” value in data set [3] is listed as “did not activate”. Also, the tyrosine phosphorylation entry in data set [4] is on record as “induces a bulk of tyrosine phosphorylation”. Further, in data set [1], the “GFP-positive cells also Myc-positive” value stood at 95% and the “Glut4 localization to the plasma membrane” value is recorded as “induced Glut4 localization to the plasma membrane”. Moreover, in data set [5], the insulin secretion entry is on record as “did not stimulate insulin secretion”. Also, the blood glucose level result in data set [5] (3-month-old male mice) is “lowers blood glucose level”. For the same molecule, in data set [6], the “Akt activation in vivo (BAT, iWAT, eWAT)” value is recorded as “activated Akt in vivo”. In addition, in [7] (50 nmole/kg once every 48 hour), the “duration of glucose-lowering effect after each subsequent injection” value was “at least 48 hours” and the hyperinsulinemia entry is “improvement in hyperinsulinemia”. In addition, the “glucose lowered on average” value in data set [7] (50 nmole/kg once every 48 hour, fed ad libitum) is 83.5 mg/dL. In addition, the liver steatosis result in data set [7] (50 nmole/kg once every 48 hour, liver colour and histology) is listed as “improved”. The hyperglycemia result in data set [7] (injection once every 48 hours) is recorded as “sufficient to normalize hyperglycemia”. Moreover, the “onset of glucose lowering” value in data set [7] (post injection) is “two”. The “duration of glucose-lowering effect of a single dose” value in [7] (single dose 50 nmole/kg ip) is recorded as “more than 20 hours”. For the same molecule, in data set [8] (setting [14]), the body weight gain entry is “reduced body weight gain”, the glucose tolerance result was “improved glucose tolerance”, the insulin sensitivity entry was “improved” and the liver steatosis entry is listed as “ameliorated liver steatosis”. Further, the “hyperglycemia (daily glucose levels)” value in data set [8] (62.6 nmole/kg per day ip, 30 days, glucose measured 24-hr post injection) is listed as “normalized hyperglycemia”. For the same molecule, the “bone density by X-Ray” value in data set [8] (mouse, in vivo) is “did not see decreased bone density. Instead, a slight increase was observed”. In [9], the fatty liver entry is given as “amelioration of fatty liver”, the hyperinsulinemia entry is reported as “reduced hyperinsulinemia” and the liver weight entry is “reduction of liver weight”. Moreover, the daily glucose levels entry in [9] (ad libitum, 6 hr, 12 hr and 24 hr from injection) was “clear improvement in daily glucose levels”. In addition, in [10], the “Aspartate aminotransferase (AST) level” value is “normalized”, the body weight result is reported as “decreased body weight”, the fat mass entry is reported as “reduction of fat mass” and the fatty liver result was “completely reversed fatty liver”. Besides, in [10], the glucose tolerance result was “markedly improved”, the “hyperglycemia (daily glucose levels)” value is listed as “completely normalized hyperglycemia”, the “hypertriglyceridemia (serum triglycerides)” value is on record as “normalized” and the insulin sensitivity result is recorded as “markedly improved”. Also, in [10], the lean mass entry was “but not lean mass”, the liver weight entry is listed as “normalized liver weight” and the surface body temperature result was “higher surface body temperature”. Also, the polyuria entry in data set [11] is “improvement in polyuria”. Further, the “decrease of glucose levels” value in [11] (6 hours fasted after each injection) is given as 41-48%. Besides, in data set [12] (ADISSP 70 nmole/kg ip once a day for two weeks), the polyuria result was “improved polyuria”. Further, the blood glucose entry in data set [12] (ADISSP 70 nmole/kg ip once a day for two weeks from Day 13) is “markedly lowered blood glucose”. Moreover, in data set [13] (setting [15]), the “fibrosis (Sirius Red staining)” value is “greatly alleviated”; the “hepatomegaly (liver size and weight)” value is recorded as “ameliorated”; the inflammation result is “ameliorated”; the steatosis result is given as “ameliorated”. For the same molecule, the “hyperglycemia (blood glucose)” value in [13] (GAN diet 32 weeks, 113 nmole/kg per day) is “normalized hyperglycemia”. Moreover, the “cardiac hypertrophy (heart weight and size)” value in data set [13] (remaining mice continued at 63 nmole/kg per day for 31 days) is recorded as “resolved high fat diet-induced cardiac hypertrophy”.
